Assay results from patent US20220184020A1, “Polyphenols as Modulators of Platelet Function” (Northeastern University, priority 2019, published 2022).

Tests used:
platelets [1] = assay: Platelet dense granule release (Chrono-Lume); type: cell-based, human; conditions: induced by CRPXL, TRAP-6 and U46619; RA pre-treatment 1 hour
Protocol: To validate the predictive power of the developed framework, direct experimental evidence of the predicted mechanistic role of Rosmarinic acid (RA) in VD was sought. […] Therefore, whether RA influenced platelet activation in vitro was evaluated. As platelets can be stimulated through different activation pathways, RA effects can, in principle, occur in any of them. To test these different possibilities, platelets were pretreated with RA and then activated with: 1) glycoprotein VI by collagen or collagen-related peptide (Collagen/CRPXL); 2) protease-activated receptors-1,4 by thrombin receptor activator peptide-6 (TRAP-6); 3) prostanoid thromboxane receptor by the thromboxane A2 analogue (U46619); and 4) P2Y1/12 receptor stimulation by adenosine diphosphate (ADP). […] Platelet aggregation was measured by turbidimetric aggregometry. […] Platelet aggregation was monitored for 6 minutes at 37° C. with a stir speed of 1000 rpm and the maximum extend of aggregation recorded using AGGRO/LINK®8 software. In some cases, dense granule release was simultaneously recorded by supplementing samples with Chrono-Lume® (Chrono-Log®, 395) according to the manufacturer's instructions.

platelets [2] = assay: Platelet alpha granule secretion (P-selectin surface expression); type: cell-based, human; conditions: in response to U46619; RA pre-treatment 1 hour
Protocol: To validate the predictive power of the developed framework, direct experimental evidence of the predicted mechanistic role of Rosmarinic acid (RA) in VD was sought. […] Therefore, whether RA influenced platelet activation in vitro was evaluated. As platelets can be stimulated through different activation pathways, RA effects can, in principle, occur in any of them. To test these different possibilities, platelets were pretreated with RA and then activated with: 1) glycoprotein VI by collagen or collagen-related peptide (Collagen/CRPXL); 2) protease-activated receptors-1,4 by thrombin receptor activator peptide-6 (TRAP-6); 3) prostanoid thromboxane receptor by the thromboxane A2 analogue (U46619); and 4) P2Y1/12 receptor stimulation by adenosine diphosphate (ADP). When the network distance between each stimulant receptor and the RA-VD-platelet module (FIG. 11A) was compared, it was observed that the receptors for Collagen/CRPXL, TRAP-6, and U46619 are closer than the random expectation, while the receptor for ADP is more distant (FIG. 11B). It is expected that platelets would be most affected by RA when treated with stimulants whose receptors are most proximal to the RA-VD-platelet module, i.e. Collagen/CRPXL, TRAP-6, and U46619. […] Percent-positive cells were determined by gating on fluorescence intensity compared to unstimulated samples.

SMILES: O=C(/C=C/c1ccc(O)c(O)c1)O[C@H](Cc1ccc(O)c(O)c1)C(=O)O [rosmarinic acid]
- dense granule secretion (platelets [1]): impairs
- alpha granule secretion (platelets [2]): dampened
